# Measured values reported in the kinase profiling compilation of Christmann-Franck et al. (2016).
# What was measured:
# Assay in all cases: radiometric filter-binding kinase assay, Kinase HotSpot
# Settings in all cases: compound 0.5 µM; ATP 10 µM
# [1] = biological target: NLK (human) (UniProt Q9UBE8)
# [2] = biological target: MAP3K2 (human) (UniProt Q9Y2U5)
# [3] = biological target: FGFR3 (human) (UniProt P22607)
# [4] = biological target: DYRK1B (human) (UniProt Q9Y463)
# [5] = biological target: GRK5 (human) (UniProt P34947)
# [6] = biological target: MAPKAPK2 (human) (UniProt P49137)
# [7] = biological target: HIPK1 (human) (UniProt Q86Z02)
# [8] = biological target: CAMK1D (human) (UniProt Q8IU85)
# [9] = biological target: MAP3K14 (human) (UniProt Q99558)
# [10] = biological target: CAMK2B (human) (UniProt Q13554)
# [11] = biological target: HIPK4 (human) (UniProt Q8NE63)
# [12] = biological target: CDK9 CCNK (human) (UniProt O75909+P50750)
# [13] = biological target: RPS6KA2 KD1 KD2 (human) (UniProt Q15349)
# [14] = biological target: CSF1R (human) (UniProt P07333)
# [15] = biological target: ACVRL1 (human) (UniProt P37023)
# [16] = biological target: STK25 (human) (UniProt O00506)
# [17] = biological target: TTK (human) (UniProt P33981)
# [18] = biological target: SLK (human) (UniProt Q9H2G2)
# [19] = biological target: ERBB2 (human) (UniProt P04626)
# [20] = biological target: BRSK1 (human) (UniProt Q8TDC3)
# [21] = biological target: RPS6KA3 KD1 KD2 (human) (UniProt P51812)
# [22] = biological target: SRC (human) (UniProt P12931)
# [23] = biological target: CSNK1G3 (human) (UniProt Q9Y6M4)
# [24] = biological target: CSNK1A1 (human) (UniProt P48729)
# [25] = biological target: PRKCE (human) (UniProt Q02156)
# [26] = biological target: CDK6 CCND1 (human) (UniProt Q00534+P24385)
# [27] = biological target: DYRK3 (human) (UniProt O43781)
# [28] = biological target: SGK3 (human) (UniProt Q96BR1)
# [29] = biological target: YES1 (human) (UniProt P07947)
# [30] = biological target: EPHA4 (human) (UniProt P54764)
# [31] = biological target: BRSK2 (human) (UniProt Q8IWQ3)
# [32] = biological target: MAP3K7 TAB1 (human) (UniProt O43318+Q15750)
# [33] = biological target: MAPK11 (human) (UniProt Q15759)
# [34] = biological target: NTRK3 (human) (UniProt Q16288)
# [35] = biological target: CAMK2D (human) (UniProt Q13557)
# [36] = biological target: CLK1 (human) (UniProt P49759)
# [37] = biological target: MST4 (human) (UniProt Q9P289)
# [38] = biological target: CDK6 CCND3 (human) (UniProt P30281+Q00534)
# [39] = biological target: STK24 (human) (UniProt Q9Y6E0)
# [40] = biological target: TYRO3 (human) (UniProt Q06418)
# [41] = biological target: STK17A (human) (UniProt Q9UEE5)
# Sequence of SRC (human) (P12931 whole entry, looked up): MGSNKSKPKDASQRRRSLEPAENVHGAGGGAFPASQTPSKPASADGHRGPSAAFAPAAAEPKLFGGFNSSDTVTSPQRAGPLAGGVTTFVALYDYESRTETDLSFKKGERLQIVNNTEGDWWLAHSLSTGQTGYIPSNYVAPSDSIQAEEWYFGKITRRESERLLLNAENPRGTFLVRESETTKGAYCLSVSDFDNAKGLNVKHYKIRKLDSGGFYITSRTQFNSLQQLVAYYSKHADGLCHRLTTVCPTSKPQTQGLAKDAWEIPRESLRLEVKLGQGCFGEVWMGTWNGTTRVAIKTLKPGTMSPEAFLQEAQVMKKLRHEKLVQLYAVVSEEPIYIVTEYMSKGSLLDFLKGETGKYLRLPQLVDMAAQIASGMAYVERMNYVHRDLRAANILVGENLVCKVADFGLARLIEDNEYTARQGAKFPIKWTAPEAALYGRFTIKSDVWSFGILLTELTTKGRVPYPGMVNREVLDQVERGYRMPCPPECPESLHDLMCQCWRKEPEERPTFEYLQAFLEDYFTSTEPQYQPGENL
# Sequence of ACVRL1 (human) (P37023 whole entry, looked up): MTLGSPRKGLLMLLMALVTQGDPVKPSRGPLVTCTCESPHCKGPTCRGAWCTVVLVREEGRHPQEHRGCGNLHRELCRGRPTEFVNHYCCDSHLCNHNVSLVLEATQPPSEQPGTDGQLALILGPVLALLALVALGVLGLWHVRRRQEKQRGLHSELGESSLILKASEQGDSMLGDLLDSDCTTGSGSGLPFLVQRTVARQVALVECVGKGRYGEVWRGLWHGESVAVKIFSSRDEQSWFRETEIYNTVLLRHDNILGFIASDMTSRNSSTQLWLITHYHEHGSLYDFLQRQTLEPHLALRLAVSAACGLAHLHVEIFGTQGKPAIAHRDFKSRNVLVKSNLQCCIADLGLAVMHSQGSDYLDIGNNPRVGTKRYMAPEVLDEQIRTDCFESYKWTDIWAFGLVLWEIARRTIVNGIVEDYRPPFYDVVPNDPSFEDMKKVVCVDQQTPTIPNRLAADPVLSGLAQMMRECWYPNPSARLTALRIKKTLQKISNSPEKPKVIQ
# Sequence of FGFR3 (human) (P22607 whole entry, looked up): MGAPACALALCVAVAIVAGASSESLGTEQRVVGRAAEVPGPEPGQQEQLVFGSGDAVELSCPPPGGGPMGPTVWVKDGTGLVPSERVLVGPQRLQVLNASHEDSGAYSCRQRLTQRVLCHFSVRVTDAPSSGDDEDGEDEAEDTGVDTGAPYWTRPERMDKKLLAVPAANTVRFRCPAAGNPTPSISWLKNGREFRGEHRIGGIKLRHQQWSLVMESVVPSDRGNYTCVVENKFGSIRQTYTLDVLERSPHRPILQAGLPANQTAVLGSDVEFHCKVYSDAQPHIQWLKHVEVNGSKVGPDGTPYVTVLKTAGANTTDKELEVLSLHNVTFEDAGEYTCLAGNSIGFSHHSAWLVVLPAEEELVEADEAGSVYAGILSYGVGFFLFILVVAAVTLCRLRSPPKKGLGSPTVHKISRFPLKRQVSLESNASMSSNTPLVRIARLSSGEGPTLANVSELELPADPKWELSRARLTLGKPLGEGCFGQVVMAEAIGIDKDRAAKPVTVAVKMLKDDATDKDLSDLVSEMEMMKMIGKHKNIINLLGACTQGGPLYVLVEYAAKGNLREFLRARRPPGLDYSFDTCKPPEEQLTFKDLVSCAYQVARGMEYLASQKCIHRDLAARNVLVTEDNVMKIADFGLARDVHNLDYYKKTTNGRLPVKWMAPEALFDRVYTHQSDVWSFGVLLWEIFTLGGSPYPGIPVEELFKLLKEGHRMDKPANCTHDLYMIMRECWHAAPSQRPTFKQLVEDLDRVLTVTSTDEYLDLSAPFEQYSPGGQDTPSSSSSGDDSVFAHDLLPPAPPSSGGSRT
# Sequence of NTRK3 (human) (Q16288 whole entry, looked up): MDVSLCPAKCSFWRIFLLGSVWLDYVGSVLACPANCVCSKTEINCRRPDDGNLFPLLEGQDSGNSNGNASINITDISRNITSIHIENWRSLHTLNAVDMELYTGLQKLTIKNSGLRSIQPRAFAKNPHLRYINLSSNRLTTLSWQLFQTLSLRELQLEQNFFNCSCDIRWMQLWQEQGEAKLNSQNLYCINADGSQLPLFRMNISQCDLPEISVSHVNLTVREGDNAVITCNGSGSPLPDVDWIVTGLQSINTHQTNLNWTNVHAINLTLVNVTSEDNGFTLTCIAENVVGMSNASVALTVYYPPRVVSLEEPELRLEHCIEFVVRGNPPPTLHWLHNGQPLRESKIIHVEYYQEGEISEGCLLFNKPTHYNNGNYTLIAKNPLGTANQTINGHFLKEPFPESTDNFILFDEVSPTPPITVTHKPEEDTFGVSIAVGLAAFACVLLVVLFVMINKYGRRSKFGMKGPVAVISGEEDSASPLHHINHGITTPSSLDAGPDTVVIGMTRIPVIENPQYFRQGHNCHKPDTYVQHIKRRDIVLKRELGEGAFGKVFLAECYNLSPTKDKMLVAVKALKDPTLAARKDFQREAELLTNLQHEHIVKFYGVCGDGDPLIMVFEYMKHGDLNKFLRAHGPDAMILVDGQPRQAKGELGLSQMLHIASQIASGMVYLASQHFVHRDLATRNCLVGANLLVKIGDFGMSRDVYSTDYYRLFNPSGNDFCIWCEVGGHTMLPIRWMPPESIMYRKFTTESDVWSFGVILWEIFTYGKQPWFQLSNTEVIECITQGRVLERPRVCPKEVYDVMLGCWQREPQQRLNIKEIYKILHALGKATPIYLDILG
# Sequence of BRSK1 (human) (Q8TDC3 whole entry, looked up): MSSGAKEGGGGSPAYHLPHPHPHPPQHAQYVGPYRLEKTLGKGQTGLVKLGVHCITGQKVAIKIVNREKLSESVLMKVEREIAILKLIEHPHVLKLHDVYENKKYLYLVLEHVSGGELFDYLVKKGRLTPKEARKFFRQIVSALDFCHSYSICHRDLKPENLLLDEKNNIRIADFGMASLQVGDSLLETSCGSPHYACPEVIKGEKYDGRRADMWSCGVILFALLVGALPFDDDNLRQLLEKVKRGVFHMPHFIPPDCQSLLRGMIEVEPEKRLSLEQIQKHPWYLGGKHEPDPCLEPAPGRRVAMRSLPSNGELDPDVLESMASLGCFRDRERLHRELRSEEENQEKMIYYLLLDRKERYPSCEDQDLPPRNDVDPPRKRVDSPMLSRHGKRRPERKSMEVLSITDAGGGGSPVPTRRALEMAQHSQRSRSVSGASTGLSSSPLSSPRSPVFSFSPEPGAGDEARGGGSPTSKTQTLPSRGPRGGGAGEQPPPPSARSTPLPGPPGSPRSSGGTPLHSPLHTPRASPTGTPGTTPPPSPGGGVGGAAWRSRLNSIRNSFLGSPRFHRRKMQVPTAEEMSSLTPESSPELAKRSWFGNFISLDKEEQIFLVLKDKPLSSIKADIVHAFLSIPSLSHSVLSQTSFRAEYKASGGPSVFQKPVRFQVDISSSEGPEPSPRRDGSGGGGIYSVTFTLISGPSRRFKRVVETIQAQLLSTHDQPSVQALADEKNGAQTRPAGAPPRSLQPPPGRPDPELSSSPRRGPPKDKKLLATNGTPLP
# Sequence of CSNK1G3 (human) (Q9Y6M4 whole entry, looked up): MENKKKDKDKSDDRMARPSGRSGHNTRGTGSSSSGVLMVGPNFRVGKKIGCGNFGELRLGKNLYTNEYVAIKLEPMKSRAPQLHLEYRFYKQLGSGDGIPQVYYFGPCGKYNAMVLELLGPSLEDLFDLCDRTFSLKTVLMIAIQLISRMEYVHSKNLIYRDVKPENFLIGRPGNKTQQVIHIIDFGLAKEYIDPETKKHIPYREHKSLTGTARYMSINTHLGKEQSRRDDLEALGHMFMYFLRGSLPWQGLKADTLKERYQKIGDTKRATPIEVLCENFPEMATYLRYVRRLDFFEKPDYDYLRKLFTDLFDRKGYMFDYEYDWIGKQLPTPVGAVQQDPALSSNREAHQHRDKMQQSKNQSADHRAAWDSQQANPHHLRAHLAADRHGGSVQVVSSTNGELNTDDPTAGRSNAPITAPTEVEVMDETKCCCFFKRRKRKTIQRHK
# Sequence of DYRK1B (human) (Q9Y463 whole entry, looked up): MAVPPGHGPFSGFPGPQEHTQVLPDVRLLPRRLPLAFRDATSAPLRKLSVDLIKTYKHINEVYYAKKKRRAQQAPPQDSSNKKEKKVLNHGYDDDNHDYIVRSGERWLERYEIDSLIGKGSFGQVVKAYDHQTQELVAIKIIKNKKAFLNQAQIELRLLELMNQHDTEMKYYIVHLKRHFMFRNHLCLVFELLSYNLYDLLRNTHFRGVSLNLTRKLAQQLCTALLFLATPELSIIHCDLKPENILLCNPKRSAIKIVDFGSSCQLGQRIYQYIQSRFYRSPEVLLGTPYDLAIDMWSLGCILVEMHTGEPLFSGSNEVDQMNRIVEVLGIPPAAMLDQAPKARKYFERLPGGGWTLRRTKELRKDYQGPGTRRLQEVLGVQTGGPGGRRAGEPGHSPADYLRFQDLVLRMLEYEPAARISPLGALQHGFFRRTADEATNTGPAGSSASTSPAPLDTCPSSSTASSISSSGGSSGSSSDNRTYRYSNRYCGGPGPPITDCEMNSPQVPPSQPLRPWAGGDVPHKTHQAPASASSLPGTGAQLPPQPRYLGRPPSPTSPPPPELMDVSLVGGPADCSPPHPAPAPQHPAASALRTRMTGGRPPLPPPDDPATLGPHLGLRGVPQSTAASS
# Sequence of STK25 (human) (O00506 whole entry, looked up): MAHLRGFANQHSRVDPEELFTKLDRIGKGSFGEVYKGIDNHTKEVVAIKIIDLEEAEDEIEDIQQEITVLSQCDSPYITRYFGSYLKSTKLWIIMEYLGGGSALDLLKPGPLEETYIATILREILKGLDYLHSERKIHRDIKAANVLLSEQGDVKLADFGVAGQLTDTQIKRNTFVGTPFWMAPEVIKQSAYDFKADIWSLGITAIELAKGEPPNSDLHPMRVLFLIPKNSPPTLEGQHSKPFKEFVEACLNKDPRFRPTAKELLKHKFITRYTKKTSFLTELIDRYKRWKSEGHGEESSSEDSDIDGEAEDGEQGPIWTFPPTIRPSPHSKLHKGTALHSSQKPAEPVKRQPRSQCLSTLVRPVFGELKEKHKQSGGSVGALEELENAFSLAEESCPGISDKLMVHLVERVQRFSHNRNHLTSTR
compound,measurement,setting,value
FC(F)(F)c1ccc(/C=C/c2nc(COc3ccc(CCCCn4ccnn4)cc3)co2)cc1,residual activity,[1],101%
same,residual activity,[2],102%
same,residual activity,[3],88.4%
same,residual activity,[4],96.7%
same,residual activity,[5],109%
same,residual activity,[6],97.9%
same,residual activity,[7],101%
same,residual activity,[8],109%
same,residual activity,[9],95.8%
same,residual activity,[10],99.3%
same,residual activity,[11],105%
same,residual activity,[12],105%
same,residual activity,[13],96.8%
same,residual activity,[14],103%
same,residual activity,[15],103%
same,residual activity,[16],91.8%
same,residual activity,[17],111%
same,residual activity,[18],92.8%
same,residual activity,[19],102%
same,residual activity,[20],103%
same,residual activity,[21],96.8%
same,residual activity,[22],92.5%
same,residual activity,[23],96.7%
same,residual activity,[24],98.4%
same,residual activity,[25],101%
same,residual activity,[26],95.4%
same,residual activity,[27],109%
same,residual activity,[28],89.2%
same,residual activity,[29],85%
same,residual activity,[30],98.8%
same,residual activity,[31],99.6%
same,residual activity,[32],88.7%
same,residual activity,[33],102%
same,residual activity,[34],98.9%
same,residual activity,[35],109%
same,residual activity,[36],101%
same,residual activity,[37],98%
same,residual activity,[38],90%
same,residual activity,[39],101%
same,residual activity,[40],103%
same,residual activity,[41],103%
N#CCCc1ccc2c(c1)-c1[nH]c3ccc([N+](=O)[O-])cc3c1CC(=O)N2,residual activity,[1],89.7%
same,residual activity,[2],61.5%
same,residual activity,[3],90.3%
same,residual activity,[4],76.8%
same,residual activity,[5],103%
same,residual activity,[6],83.4%
same,residual activity,[7],97.9%
same,residual activity,[8],91.8%
same,residual activity,[9],161%
same,residual activity,[10],99.3%
same,residual activity,[11],113%
same,residual activity,[12],23.7%
same,residual activity,[13],24.4%
same,residual activity,[14],43.4%
same,residual activity,[15],53.6%
same,residual activity,[16],91.1%
same,residual activity,[17],71.7%
same,residual activity,[18],87.2%
same,residual activity,[19],98.6%
same,residual activity,[20],46.8%
same,residual activity,[21],28.6%
same,residual activity,[22],30.8%
same,residual activity,[23],89.7%
same,residual activity,[24],95.1%
same,residual activity,[25],95.4%
same,residual activity,[26],6.79%
same,residual activity,[27],97.6%
same,residual activity,[28],99.2%
same,residual activity,[29],35.8%
same,residual activity,[30],85.2%
same,residual activity,[31],42%
same,residual activity,[32],38.1%
same,residual activity,[33],101%
same,residual activity,[34],61.2%
same,residual activity,[35],57.8%
same,residual activity,[36],99.6%
same,residual activity,[37],65.1%
same,residual activity,[38],26%
same,residual activity,[39],57.7%
same,residual activity,[40],94.8%
same,residual activity,[41],46.8%
CCOc1cc2ncnc(Nc3cccc(Br)c3)c2cc1OCC,residual activity,[1],95.9%
same,residual activity,[2],102%
same,residual activity,[3],103%
same,residual activity,[4],103%
same,residual activity,[5],104%
same,residual activity,[6],101%
same,residual activity,[7],104%
same,residual activity,[8],102%
same,residual activity,[9],93.4%
same,residual activity,[10],98.8%
same,residual activity,[11],89.9%
same,residual activity,[12],102%
same,residual activity,[13],74.5%
same,residual activity,[14],87.6%
same,residual activity,[15],103%
same,residual activity,[16],90.1%
same,residual activity,[17],91.2%
same,residual activity,[18],64.8%
same,residual activity,[19],13.8%
same,residual activity,[20],86.1%
same,residual activity,[21],89.9%
same,residual activity,[22],74.8%
same,residual activity,[23],98.7%
same,residual activity,[24],98.6%
same,residual activity,[25],94.5%
same,residual activity,[26],102%
same,residual activity,[27],98.5%
same,residual activity,[28],96.7%
same,residual activity,[29],43.2%
same,residual activity,[30],75.1%
same,residual activity,[31],94%
same,residual activity,[32],102%
same,residual activity,[33],89%
same,residual activity,[34],91.5%
same,residual activity,[35],87%
same,residual activity,[36],97.2%
same,residual activity,[37],94.9%
same,residual activity,[38],104%
same,residual activity,[39],97.6%
same,residual activity,[40],92.2%
same,residual activity,[41],98.9%
